Where only a bound is given, the exact number is not on record here.

Holding throughout (assay type): biochemical
One assay deals with T1, p70S6K (Homo sapiens, UniProt P23443, T412E).
T1 construct: human p70S6 kinase domain residues 1-421, containing a T412E mutation; made in house
In words: p70S6 Kinase Assay (Luciferase-Coupled Chemiluminescent Kinase assay, LCCA). As to conditions: human p70S6 kinase domain residues 1-421, T412E; 5 μM ATP; read-out: p70S6K IC50. The procedure, abridged:
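Luciferase-coupled chemiluminescence measured percent ATP remaining after the 2 h kinase reaction at ambient temperature, with ATP near the kinase's KM. Ten inhibitor concentrations were tested. IC50 was obtained from a Hill-equation fit.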

For another assay, the target named is T2, PDK1 (Homo sapiens, UniProt O15530).
T2 construct: human PDK1 kinase domain residues M51-T359; made in house
T2 sequence (O15530 51-359): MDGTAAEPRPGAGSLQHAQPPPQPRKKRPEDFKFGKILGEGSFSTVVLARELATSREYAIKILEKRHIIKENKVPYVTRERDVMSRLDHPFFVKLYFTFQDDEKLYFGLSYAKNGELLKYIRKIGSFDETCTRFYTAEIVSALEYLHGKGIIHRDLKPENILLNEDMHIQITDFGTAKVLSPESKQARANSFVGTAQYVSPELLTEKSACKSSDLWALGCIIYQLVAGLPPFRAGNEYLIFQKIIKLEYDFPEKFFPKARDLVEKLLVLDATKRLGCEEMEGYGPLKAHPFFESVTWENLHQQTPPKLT
In words: PDK1 Kinase Assay (Luciferase-Coupled Chemiluminescent Kinase assay, LCCA). As to conditions: human PDK1 kinase domain residues M51-T359; 0.5 μM ATP; read-out: PDK-1 IC50. As for the experimental part: (§1) Kinase activity and compound inhibition are investigated using one or more of the three assay formats described below. The ATP concentrations for each assay are selected to be close to the Michaelis-Menten constant (KM) for each individual kinase. Dose-response experiments are performed at 10 different inhibitor concentrations in a 384-well plate format. The data are fitted to four-parameter equation (2) below; where Y is the observed signal, X is the inhibitor concentration, Min is the background signal in the absence of enzyme (0% enzyme activity), Max is the signal in the absence of inhibitor (100% enzyme activity), IC50 is the inhibitor concentration at 50% enzyme inhibition and H represents the empirical Hill's slope to measure the cooperativity. Typically H is close to unity. Y=Min+(Max−Min)/(1+(X/IC50)^H) Equation (2) p70S6 Kinase Assay
Biochemical activity of PDK1 kinase was assessed using a Luciferase-Coupled Chemiluminescent Kinase assay (LCCA) format. Kinase activity was measured as the percent ATP remaining following the kinase reaction. Remaining ATP was detected by luciferase-luciferin-coupled chemiluminescence. Specifically, the reaction was initiated by mixing test compounds, 0.5 μM ATP, 0.6 μM PDKtide peptide and 6 nM PDK1 (baculovirus expressed human PDK1 kinase domain residues M51-T359) in a 20 uL assay buffer (20 mM Hepes pH 7.5, 1 mM CaCl2, 0.03% CHAPS, 2 mM DTT). The mixture is incubated at ambient temperature for 3 hours after which 20 μL luciferase-luciferin mix is added and the chemiluminescent signal read using a Wallac Victor2 reader. The luciferase-luciferin mix consists of 50 mM HEPES, pH 7.8, 8.5 μg/mL oxalic acid (pH 7.8), 5 (or 50) mM DTT, 0.4% Triton X-100, 0.25 mg/mL coenzyme A, 63 uM AMP, 28 μg/mL luciferin and 40,000 units/mL luciferase.

Another assay concerns the target T3, Akt1 (Homo sapiens, UniProt P31749).
T3 construct: made in house
In words: Akt1 Kinase Assay (Luciferase-Coupled Chemiluminescent Kinase assay, LCCA). As to conditions: human Akt1 kinase domain residues R144-A480, activated with PDK1; 1 μM ATP; read-out: Akt-1 IC50. The protocol:
as §1
Biochemical activity of Akt1 kinase was assessed using a Luciferase-Coupled Chemiluminescent Kinase assay (LCCA) format. Kinase activity was measured as the percent ATP remaining following the kinase reaction. Remaining ATP was detected by luciferase-luciferin-coupled chemiluminescence. Specifically, the reaction was initiated by mixing test compounds, 1 μM ATP, 5 μM crosstide peptide and 1.3 nM Akt1 (baculovirus expressed human Akt1 kinase domain residues R144-A480, activated with PDK1) in a 20 uL assay buffer (20 mM Tris-HCL pH 7.5, 10 mM MgCl2, 0.01% Triton X-100, 1 mM DTT, 3 mM MnCl2). The mixture is incubated at ambient temperature for 3 hours after which 20 μL luciferase-luciferin mix is added and the chemiluminescent signal read using a Wallac Victor2 reader. The luciferase-luciferin mix consists of 50 mM HEPES, pH 7.8, 8.5 μg/mL oxalic acid (pH 7.8), 5 (or 50) mM DTT, 0.4% Triton X-100, 0.25 mg/mL coenzyme A, 63 uM AMP, 28 μg/mL luciferin and 40,000 units/mL luciferase.

T3 sequence (P31749 144-480): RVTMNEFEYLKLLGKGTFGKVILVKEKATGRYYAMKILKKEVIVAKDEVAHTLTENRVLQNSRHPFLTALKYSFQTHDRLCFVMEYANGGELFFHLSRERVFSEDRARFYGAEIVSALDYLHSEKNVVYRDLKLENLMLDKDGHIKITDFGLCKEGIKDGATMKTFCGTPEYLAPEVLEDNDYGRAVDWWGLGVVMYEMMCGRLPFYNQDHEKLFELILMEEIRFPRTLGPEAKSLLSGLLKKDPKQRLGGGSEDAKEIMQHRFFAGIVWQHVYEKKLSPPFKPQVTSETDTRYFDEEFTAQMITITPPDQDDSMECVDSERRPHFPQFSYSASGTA
T1 sequence (P23443 1-421 T412E): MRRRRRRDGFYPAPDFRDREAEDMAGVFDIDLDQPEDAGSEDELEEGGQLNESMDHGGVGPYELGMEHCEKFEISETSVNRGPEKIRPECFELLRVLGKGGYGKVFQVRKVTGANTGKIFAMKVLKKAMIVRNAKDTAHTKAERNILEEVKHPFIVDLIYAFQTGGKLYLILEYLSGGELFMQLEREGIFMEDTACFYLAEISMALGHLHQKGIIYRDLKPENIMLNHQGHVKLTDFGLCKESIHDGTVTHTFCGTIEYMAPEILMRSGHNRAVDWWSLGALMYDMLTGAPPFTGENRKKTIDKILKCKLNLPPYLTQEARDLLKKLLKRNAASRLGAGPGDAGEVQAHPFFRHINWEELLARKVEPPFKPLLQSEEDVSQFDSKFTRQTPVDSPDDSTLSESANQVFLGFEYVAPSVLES

Broadly, the IC50 is the concentration needed to halve the response being measured. Regarding `CSc1nc(N)nc(N(C)[C@@H](C)C(=O)Nc2cc(OC(F)(F)F)ccc2OCCN(C)C)c1C#N` [Example 134, N~2~-[2-amino-5-cyano-6-(methylthio)pyrimidin-4-yl]-N-{2-{[2-(dimethylamino)ethyl]oxy}-5-[(trifluoromethyl)oxy]phenyl}-N~2~-methyl-L-alaninamide], the IC50 on p70S6K is less than 50 nM; on PDK1 it was greater than 2000 nM; on Akt1 it was greater than 2000 nM.

As for `CSc1nc(N)nc(SCC(=O)Nc2nccs2)c1C#N` [Example 27, 2-{[2-amino-5-cyano-6-(methylthio)pyrimidin-4-yl]thio}-N-1,3-thiazol-2-ylacetamide], the half-inhibitory concentration (IC50) is less than 50 nM on p70S6K, greater than 2000 nM on PDK1 and greater than 2000 nM on Akt1.

For `CSc1nc(N)nc(N(C)[C@@H](C)C(=O)Nc2cc(C(=O)NCCCN3CCN(C)CC3)cc(C(F)(F)F)c2)c1C#N` [Example 131, 3-({N-[2-amino-5-cyano-6-(methylthio)pyrimidin-4-yl]-N-methyl-L-alanyl}amino)-N-[3-(4-methylpiperazin-1-yl)propyl]-5-(trifluoromethyl)benzamide], the IC50 is less than 50 nM on p70S6K, greater than 2000 nM on PDK1 and greater than 2000 nM at Akt1.

Consider `CSc1nc(N)nc(N[C@@H](C)C(=O)Nc2cc(OCCN(C)C)cc(C(F)(F)F)c2)c1C#N` [Example 137, N~2~-[2-amino-5-cyano-6-(methylthio)pyrimidin-4-yl]-N-[3-{[2-(dimethylamino)ethyl]oxy}-5-(trifluoromethyl)phenyl]-L-alaninamide], for which the IC50 at p70S6K is less than 50 nM; at PDK1 it was greater than 2000 nM; on Akt1, greater than 2000 nM.

For `CSc1nc(N)nc(N[C@@H](COC(C)=O)C(=O)Nc2cccc(C(F)(F)F)c2)c1C#N` [Example 138, (2S0-2-{[2-amino-5-cyano-6-(methylthio)pyrimidin-4-yl]amino}-3-oxo-3-{[3-(trifluoromethyl)phenyl]amino}propyl acetate], the IC50 is 50 to 500 nM at p70S6K, greater than 2000 nM on PDK1 and greater than 2000 nM at Akt1.

Take `CSc1nc(N)nc(SCC(=O)Nc2cccc(C(F)(F)F)c2)c1C#N` [Example 21, 2-{[2-amino-5-cyano-6-(methylthio)pyrimidin-4-yl]thio}-N-[3-(trifluoromethyl)phenyl]acetamide]: the IC50 is less than 50 nM at p70S6K, greater than 2000 nM at PDK1 and greater than 2000 nM on Akt1.

Consider `CSc1nc(N)nc(N(C)[C@@H](C)C(=O)Nc2cccc(Br)c2)c1C#N` [Example 133, N~2~-[2-amino-5cyano-6-(methylthio)pyrimidin-4-yl]-N-(3-bromophenyl)-N~2~-methyl-L-alaninamide], for which the IC50 at p70S6K is less than 50 nM; on PDK1, greater than 2000 nM; at Akt1, greater than 2000 nM.

As for `CCOc1nc(N)nc(N(C)[C@@H](CCCCN)C(=O)Nc2cccc(C(F)(F)F)c2)c1C#N` [Example 136, N~2~-[2-amino-5-cyano-6-(ethyloxy)pyrimidin-4-yl]-N~2~-methyl-N-[3-(trifluoromethyl)phenyl]-L-lysinamide], the IC50 at p70S6K is less than 50 nM; on PDK1, greater than 2000 nM; on Akt1 it was greater than 2000 nM.

As for `CSc1nc(N)nc(SCC(=O)Nc2cccc(C(F)(F)F)n2)c1C#N` [Example 36, 2-{[2-amino-5-cyano-6-(methylthio)pyrimidin-4-yl]thio}-N-[6-(trifluoromethyl)pyridin-2-yl]acetamide], the values for the IC50 at p70S6K, on PDK1 and on Akt1 were less than 50 nM, greater than 2000 nM and greater than 2000 nM, respectively.

Take `CCCCOc1cccc(NC(=O)CSc2nc(N)nc(SC)c2C#N)c1` [Example 22, 2-{[2-amino-5-cyano-6-(methylthio)pyrimidin-4-yl]thio}-N-[3-(butyloxy)phenyl]acetamide]: the IC50 on p70S6K was less than 50 nM; at PDK1, greater than 2000 nM; on Akt1, greater than 2000 nM.

On to `CNc1cc(COC(=O)Nc2cccc(C(F)(F)F)c2)nc(SC)n1` [Example 39, [6-(methylamino)-2-(methylthio)pyrimidin-4-yl]methyl [3-(trifluoromethyl)phenyl]carbamate], for which the half-maximal inhibitory concentration (IC50) was less than 50 nM at p70S6K, greater than 2000 nM on PDK1 and greater than 2000 nM at Akt1.

In the case of `CSc1cc(COC(=O)Nc2cccc(C(F)(F)F)c2)nc(NCc2ccccc2)n1` [Example 38, {6-(methylthio)-2-[(phenylmethyl)amino]pyrimidin-4-yl}methyl [3-(trifluoromethyl)phenyl]carbamate], the half-maximal inhibitory concentration (IC50) on p70S6K was less than 50 nM; at PDK1, greater than 2000 nM; on Akt1, greater than 2000 nM.

As to `Nc1cc(SCC(=O)Nc2cccc(C(F)(F)F)c2)nc(N)n1` [Example 33, 2-[(2,6-diaminopyrimidin-4-yl)thio]-N-[3-(trifluoromethyl)phenyl]acetamide], the IC50 on p70S6K was less than 50 nM; at PDK1 it was greater than 2000 nM; at Akt1 it was greater than 2000 nM.

In the case of `CSc1nc(N)nc(SCC(=O)Nc2ccc(C(F)(F)F)cn2)c1C#N` [Example 4], the IC50 on p70S6K is less than 50 nM; at PDK1, greater than 2000 nM; on Akt1, greater than 2000 nM.

As to `CCOC(=O)c1sc(NC(=O)CSc2nc(N)nc(SC)c2C#N)c(C#N)c1C` [Example 28, ethyl 5-[({[2-amino-5-cyano-6-(methylthio)pyrimidin-4-yl]thio}acetyl)amino]-4-cyano-3-methylthiophene-2-carboxylate], the IC50 on p70S6K is less than 50 nM; at PDK1 it was greater than 2000 nM; at Akt1, greater than 2000 nM.

`CSc1nc(N)nc(SCC(=O)Nc2ccc(F)c(C(F)(F)F)c2)c1C#N` [Example 31, 2-{[2-amino-5-cyano-6-(methylthio)pyrimidin-4-yl]thio}-N-[4-fluoro-3-(triuoromethyl)phenyl]acetamide]: the IC50 at p70S6K is less than 50 nM; on PDK1, greater than 2000 nM; at Akt1, greater than 2000 nM.

Turning to `CSc1nc(N)nc(SCC(=O)c2ccc3c(c2)NC(=O)CO3)c1C#N` [Example 49, 2-amino-4-(methylthio)-6-{[2-oxo-2-(3-oxo-3,4-dihydro-2H-1,4-benzoxazin-6-yl)ethyl]thio}pyrimidine-5-carbonitrile], the half-maximal inhibitory concentration (IC50) at p70S6K was 50 to 500 nM; at PDK1, greater than 2000 nM; on Akt1 it was greater than 2000 nM.

For `CCOc1nc(N)nc(N[C@@H](CCCN)C(=O)Nc2cccc(C(F)(F)F)c2)c1C#N` [Example 129, N^2-[2-amino-5-cyano-6-(ethyloxy)pyrimidin-4-yl]-N-[3-(trifluoromethyl)phenyl]-L-ornithinamide], the IC50 at p70S6K, on PDK1 and at Akt1 was greater than 2000 nM each time.

For `CSc1nc(COC(=O)Nc2cccc(C(F)(F)F)c2)cc(NCc2ccccc2)n1` [Example 40, {2-(methylthio)-6-[(phenylmethyl)amino]pyrimidin-4-yl}methyl [3-(trifluoromethyl)phenyl]carbamate], the IC50 on p70S6K is less than 50 nM; at PDK1 it was greater than 2000 nM; at Akt1, greater than 2000 nM.

In the case of `COc1nc(N)nc(NNC(=O)Nc2cccc(C(F)(F)F)c2)c1C#N` [Example 140, 2-[2-amino-5-cyano-6-(methyloxy)pyrimidin-4-yl]-N-[3-(trifluoromethyl)phenyl]hydrazinecarboxamide], the values for the IC50 on p70S6K, at PDK1 and on Akt1 were 50 to 500 nM, greater than 2000 nM and greater than 2000 nM, respectively.

(Values after US7816353B2 (Exelixis, Inc., priority 2003, dated 2010).)
